From PMC7556031, “Tofacitinib and Baricitinib Are Taken up by Different Uptake Mechanisms Determining the Efficacy of Both Drugs in RA” (International Journal of Molecular Sciences, 2020)
pIC50: −log10 of the molar value.

Biological target: T1, hMATE1 (multidrug and toxin extrusion protein 1) (Homo sapiens, UniProt Q96FL8)
T1 construct: gene SLC47A1; hMATE1 stably transfected in HEK293 cells
T1 sequence (Q96FL8 1-570): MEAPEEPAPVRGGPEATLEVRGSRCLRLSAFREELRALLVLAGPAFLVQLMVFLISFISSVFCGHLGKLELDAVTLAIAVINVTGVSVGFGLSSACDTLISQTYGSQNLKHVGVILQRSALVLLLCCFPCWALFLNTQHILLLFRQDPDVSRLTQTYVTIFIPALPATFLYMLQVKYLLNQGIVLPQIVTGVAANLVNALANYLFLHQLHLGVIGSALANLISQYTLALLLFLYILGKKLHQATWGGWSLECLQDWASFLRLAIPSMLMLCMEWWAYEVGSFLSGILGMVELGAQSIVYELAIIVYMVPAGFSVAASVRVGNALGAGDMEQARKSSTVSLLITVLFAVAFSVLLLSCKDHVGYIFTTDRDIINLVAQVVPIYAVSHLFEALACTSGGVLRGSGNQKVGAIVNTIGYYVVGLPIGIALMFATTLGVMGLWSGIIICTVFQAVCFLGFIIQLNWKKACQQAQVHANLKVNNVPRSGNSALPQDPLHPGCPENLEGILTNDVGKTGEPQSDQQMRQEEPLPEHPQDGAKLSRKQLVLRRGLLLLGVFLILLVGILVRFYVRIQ
Experiment: cis-inhibition of ASP+ uptake in hMATE1-HEK293 cells after acidification; supported by LC/MS of temperature-dependent tofacitinib export
Assay type: cell-based

C[C@@H]1CCN(C(=O)CC#N)C[C@@H]1N(C)c1ncnc2[nH]ccc12 [Tofacitinib]
pIC50: 4.70
